Test system: PC3 cells
Assay: xCELLigence RTCA real-time cell invasion assay (CIM plate, Matrigel) on PC3 prostate cancer cells
Type: cell-based
Conditions: Homo sapiens, PC-3, compound 25 uM to 1 uM, cell index monitored for 72 hours, four-parameter dose-response curve, read-out: IC50, Effect of compounds on the invention on prostate cancer cells
Procedure: The media antibiotics and serum were purchased from Invitrogen (Life Technologies). PC3 cells were purchased from ATCC (Granville, NSW, Australia). PC3 cells were expanded in cell culture T75 flasks with vented cap and then preserved in low passage number. The medium used for PC3 cells was RPMI (GlutaMAX) supplemented with 10% FCS and 1% penicillin/streptomycin (culture media). The cells were maintained at 37° C. in a humidified 95% (v/v) air/5% (v/v) CO2 environment and were grown up to 80% confluence.
XCELLigence® real-time cell analysis (RTCA) instrument (ACEA Biosciences), 16-well ACEA CIM-Plates, 16-well ACEA E-Plat and assembly tool were purchased from ELITechGroup empowering IVD (Braeside, Australia). The Matrigel was purchased from Corning (Australia).
To measure cell invasion under compound treatment the upper chamber of the CIM plate was coated with 5% Matrigel diluted in SF RPMI (20 μl) and incubated in a 37° C. tissue culture incubator for four hours. Using the assembly tool to support the chambers the lower chamber was filled with (160 μl) of culture media containing the compound in specific concertation from 25 uM to 1 uM and two controls (DMSO 0.1% and ESFAM 4C 10 uM) (see the schematic in FIG. 1). Once the upper chamber was placed on the top of the lower chamber it was loaded with (40 μl) serum-free (SF) RPMI containing the compound as previously stated. After one hour calibration in 37° C., plates were placed into the xCELLigence station, and the base-line electric impedance was measured to confirm that all wells and connections were working properly. In case of connection problem, the software automatically informs the researcher about the nature of the problem in the message section. Subsequently cells were trypsinized and upon harvesting and counting they were diluted in SF RPMI to desired density (3×10^4) and seeded (100 μl) in the wells. After 30 minutes of incubation in room-temperature to allow cell attachment the plates were loaded in the xCELLigence RTCA DP machine. The cell invasion was monitored in real-time for the duration of 72 hours. […]
The xCELLigence system automatically monitored the electrical impedance value of each well and expressed as a cell index (CI) value for the duration of 72 hours. The data for treatments was automatically grouped as the mean±standard deviation. The software version used in these experiments is 1.2.1. The electronic record of the experimental data is automatically saved in file that cannot be altered or changed by the researcher.
Statistical analysis was performed using Microsoft® Office EXCEL and GraphPad Prism 7. The IC50 was calculated from the four-parameter dose-response curve (log(inhibitor) vs. response-variable slopes). Where the row-data was inserted in GraphPad Prism 7 (Dose response x-log(dose)) and analysed for XY nonlinear regression (curve fit), dose response-inhibition, log(inhibitor) vs response variable slope (four parameters). For the IC90 calculation the log(IC50)=log(IC90)-(1/HillSlope)*log(9) equation was used in EXCEL based on the raw data extracted from xCELLigence system and the dose-response curve.

Row | Compound | IC50
1 | Cn1cc(-c2cc(N3Cc4ccccc4C3)nc3cc(C(=O)Nc4cccc(O)c4)nn23)cn1 [Compound 58, N-(3-hydroxyphenyl)-5-(isoindolin-2-yl)-7-(1-methyl-1H-pyrazol-4-yl)pyrazolo[1,5-a]pyrimidine-2-carboxamide] | 10.1 µM
2 | COc1cccc(NC(=O)c2cc3nc(N4Cc5ccccc5C4)cc(-c4c(C)nn(C)c4C)n3n2)c1 [Compound 59, 5-(isoindolin-2-yl)-N-(3-methoxyphenyl)-7-(1,3,5-trimethyl-1H-pyrazol-4-yl)pyrazolo[1,5-a]pyrimidine-2-carboxamide] | 4.38 µM
3 | Cc1nn(C)c(C)c1-c1cc(N2Cc3ccccc3C2)nc2cc(C(=O)Nc3cccc(O)c3)nn12 [Compound 60, N-(3-hydroxyphenyl)-5-(isoindolin-2-yl)-7-(1,3,5-trimethyl-1H-pyrazol-4-yl)pyrazolo[1,5-a]pyrimidine-2-carboxamide] | 7.39 µM
4 | COc1cccc(NC(=O)c2nn3c(-c4cn[nH]c4)cc(N4Cc5ccccc5C4)nc3c2C)c1 [Compound 66, 5-(isoindolin-2-yl)-N-(3-methoxyphenyl)-3-methyl-7-(1H-pyrazol-4-yl)pyrazolo[1,5-a]pyrimidine-2-carboxamide] | 19.7 µM
5 | Cc1c(C(=O)Nc2cccc(OC(F)(F)F)c2)nn2c(-c3cn[nH]c3)cc(N3Cc4ccccc4C3)nc12 [Compound 67, 5-(isoindolin-2-yl)-3-methyl-7-(1H-pyrazol-4-yl)-N-(3-(trifluoromethoxy)phenyl)pyrazolo[1,5-a]pyrimidine-2-carboxamide] | 5.94 µM
6 | Cc1c(C(=O)Nc2cccc(O)c2)nn2c(-c3cn[nH]c3)cc(N(C)Cc3ccccc3)nc12 [Compound 68, 5-(benzyl(methyl)amino)-N-(3-hydroxyphenyl)-3-methyl-7-(1H-pyrazol-4-yl)pyrazolo[1,5-a]pyrimidine-2-carboxamide] | 5.76 µM
7 | COc1cccc(NC(=O)c2nn3c(-c4cn[nH]c4)cc(N(C)Cc4ccccc4)nc3c2C)c1 [Compound 69, 5-(benzyl(methyl)amino)-N-(3-methoxyphenyl)-3-methyl-7-(1H-pyrazol-4-yl)pyrazolo[1,5-a]pyrimidine-2-carboxamide] | 1.9 µM
8 | Cc1c(C(=O)Nc2cccc(OC(F)(F)F)c2)nn2c(-c3cn[nH]c3)cc(N(C)Cc3ccccc3)nc12 [Compound 70, 5-(benzyl(methyl)amino)-3-methyl-7-(1H-pyrazol-4-yl)-N-(3-(trifluoromethoxy)phenyl)pyrazolo[1,5-a]pyrimidine-2-carboxamide] | 5.87 µM
9 | CC(C)c1c(C(=O)Nc2cccc(OC(F)(F)F)c2)nn2c(-c3cn[nH]c3)cc(N3Cc4ccccc4C3)nc12 [Compound 73, 5-(isoindolin-2-yl)-3-isopropyl-7-(1H-pyrazol-4-yl)-N-(3-(trifluoromethoxy)phenyl)pyrazolo[1,5-a]pyrimidine-2-carboxamide] | 4.91 µM
10 | CC(C)c1c(C(=O)Nc2cccc(O)c2)nn2c(-c3cn[nH]c3)cc(N(C)Cc3ccccc3)nc12 [Compound 74, 5-(benzyl(methyl)amino)-N-(3-hydroxyphenyl)-3-isopropyl-7-(1H-pyrazol-4-yl)pyrazolo[1,5-a]pyrimidine-2-carboxamide] | 1.34 µM
11 | COc1cccc(NC(=O)c2nn3c(-c4cn[nH]c4)cc(N(C)Cc4ccccc4)nc3c2C(C)C)c1 [Compound 75, 5-(benzyl(methyl)amino)-3-isopropyl-N-(3-methoxyphenyl)-7-(1H-pyrazol-4-yl)pyrazolo[1,5-a]pyrimidine-2-carboxamide] | 5.68 µM
12 | CC(C)c1c(C(=O)Nc2cccc(OC(F)(F)F)c2)nn2c(-c3cn[nH]c3)cc(N(C)Cc3ccccc3)nc12 [Compound 76, 5-(benzyl(methyl)amino)-3-isopropyl-7-(1H-pyrazol-4-yl)-N-(3-(trifluoromethoxy)phenyl)pyrazolo[1,5-a]pyrimidine-2-carboxamide] | 11.6 µM
13 | COc1cccc(NC(=O)c2nn3c(-c4cn[nH]c4)cc(N4Cc5ccc(F)cc5C4)nc3c2C(C)C)c1 [Compound 77, 5-(5-fluoroisoindolin-2-yl)-3-isopropyl-N-(3-methoxyphenyl)-7-(1H-pyrazol-4-yl)pyrazolo[1,5-a]pyrimidine-2-carboxamide] | 11 µM
14 | CC(=O)Nc1cccc(NC(=O)c2nn3c(-c4cn[nH]c4)cc(N4Cc5ccc(F)cc5C4)nc3c2C(C)C)c1 [Compound 78, N-(3-acetamidophenyl)-5-(5-fluoroisoindolin-2-yl)-3-isopropyl-7-(1H-pyrazol-4-yl)pyrazolo[1,5-a]pyrimidine-2-carboxamide] | 3.03 µM
15 | CC(=O)N1CCN(c2cccc(NC(=O)c3nn4c(-c5cn[nH]c5)cc(N5Cc6ccc(F)cc6C5)nc4c3C(C)C)c2)CC1 [Compound 79, N-(3-(4-acetylpiperazin-1-yl)phenyl)-5-(5-fluoroisoindolin-2-yl)-3-isopropyl-7-(1H-pyrazol-4-yl)pyrazolo[1,5-a]pyrimidine-2-carboxamide] | 4.05 µM

The remaining lines, values ahead:

Row | IC50 | Compound
16 | 2.76 µM | COc1cc(NC(=O)c2cc3nc(N4Cc5ccccc5C4)cc(-c4cn[nH]c4)n3n2)ccc1Cl [Compound 53, N-(4-chloro-3-methoxyphenyl)-5-(isoindolin-2-yl)-7-(1H-pyrazol-4-yl)pyrazolo[1,5-a]pyrimidine-2-carboxamide]
17 | 1.65 µM | COc1ccc(NC(=O)c2cc3nc(N4Cc5ccccc5C4)cc(-c4cn[nH]c4)n3n2)cc1 [Compound 54, 5-(isoindolin-2-yl)-N-(4-methoxyphenyl)-7-(1H-pyrazol-4-yl)pyrazolo[1,5-a]pyrimidine-2-carboxamide]
18 | 7.86 µM | CCOc1ccc(NC(=O)c2cc3nc(N4Cc5ccccc5C4)cc(-c4cn[nH]c4)n3n2)cc1 [Compound 55, N-(4-ethoxyphenyl)-5-(isoindolin-2-yl)-7-(1H-pyrazol-4-yl)pyrazolo[1,5-a]pyrimidine-2-carboxamide]
19 | 2.83 µM | CC(C)Oc1ccc(NC(=O)c2cc3nc(N4Cc5ccccc5C4)cc(-c4cn[nH]c4)n3n2)cc1 [Compound 56, 5-(isoindolin-2-yl)-N-(4-isopropoxyphenyl)-7-(1H-pyrazol-4-yl)pyrazolo[1,5-a]pyrimidine-2-carboxamide]
20 | 2.59 µM | COc1cccc(NC(=O)c2cc3nc(N4Cc5ccccc5C4)cc(-c4cnn(C)c4)n3n2)c1 [Compound 57, 5-(isoindolin-2-yl)-N-(3-methoxyphenyl)-7-(1-methyl-1H-pyrazol-4-yl)pyrazolo[1,5-a]pyrimidine-2-carboxamide]
21 | 3.68 µM | COc1cccc(NC(=O)c2cc3nc(N4Cc5ccc(Cl)cc5C4)cc(-c4cn[nH]c4)n3n2)c1 [Compound 61, 5-(5-chloroisoindolin-2-yl)-N-(3-methoxyphenyl)-7-(1H-pyrazol-4-yl)pyrazolo[1,5-a]pyrimidine-2-carboxamide]
22 | 5.22 µM | O=C(Nc1cccc(O)c1)c1cc2nc(N3Cc4ccc(Cl)cc4C3)cc(-c3cn[nH]c3)n2n1 [Compound 62, 5-(5-chloroisoindolin-2-yl)-N-(3-hydroxyphenyl)-7-(1H-pyrazol-4-yl)pyrazolo[1,5-a]pyrimidine-2-carboxamide]
23 | 4.65 µM | COc1cccc(NC(=O)c2cc3nc(N4Cc5ccc(F)cc5C4)cc(-c4cn[nH]c4)n3n2)c1 [Compound 63, 5-(5-fluoroisoindolin-2-yl)-N-(3-methoxyphenyl)-7-(1H-pyrazol-4-yl)pyrazolo[1,5-a]pyrimidine-2-carboxamide]
24 | 9.59 µM | O=C(Nc1cccc(O)c1)c1cc2nc(N3Cc4ccc(F)cc4C3)cc(-c3cn[nH]c3)n2n1 [Compound 64, 5-(5-fluoroisoindolin-2-yl)-N-(3-hydroxyphenyl)-7-(1H-pyrazol-4-yl)pyrazolo[1,5-a]pyrimidine-2-carboxamide]
25 | 3.15 µM | CC(C)c1c(C(=O)Nc2cccc(O)c2)nn2c(-c3cn[nH]c3)cc(N3Cc4ccccc4C3)nc12 [Compound 71, N-(3-hydroxyphenyl)-5-(isoindolin-2-yl)-3-isopropyl-7-(1H-pyrazol-4-yl)pyrazolo[1,5-a]pyrimidine-2-carboxamide]
26 | 2.91 µM | COc1cccc(NC(=O)c2nn3c(-c4cn[nH]c4)cc(N4Cc5ccccc5C4)nc3c2C(C)C)c1 [Compound 72, 5-(isoindolin-2-yl)-3-isopropyl-N-(3-methoxyphenyl)-7-(1H-pyrazol-4-yl)pyrazolo[1,5-a]pyrimidine-2-carboxamide]

From patent US12215112B2, “CD151 inhibitors” (ESFAM BIOTECH PTY LTD, priority 2020, dated 2025)
